Results published in PubChem BioAssay AID1996.
Values after ≈ are worked out from the molar mass of the structure shown.

settings: buffer; pH 7.4; 200.0 µM

| Structure (SMILES) | solubility kinetic |
| --- | --- |
| COC(=O)c1cnc(SCC(=O)c2ccccc2)n1C | > 43.6 µg/mL |
| OC(COc1ccc(Br)cc1)Cn1ccnc1 (stereo not given) | 36.3 µg/mL (≈ 122 µM) |
| CC(OC(=O)C1CC1)C(=O)Nc1cc(Cl)cc(Cl)c1 (stereo not given) | > 45.3 µg/mL |
| Cc1ccccc1-c1nnc(SCC(=O)N(C)C2CCS(=O)(=O)C2)n1C (stereo not given) | > 59.2 µg/mL |
| CC(C)(Oc1ccc(Cl)cc1)C(=O)NC1CC1 | > 38.1 µg/mL |
| Cc1cccc(N2C(=O)Cc3ccccc3C2=O)c1 | 30.7 µg/mL (≈ 122 µM) |
| Cc1c(Cl)cnc(NC(=O)COC(=O)C2CCCC2)c1Cl | > 49.7 µg/mL |
| O=c1[nH]c2ccc(NC(=S)Nc3ccc(F)cc3)cc2[nH]1 | > 45.3 µg/mL |
| Cc1cc(NC(=O)CN2C(=O)NC(C)(CC(C)C)C2=O)no1 (stereo not given) | > 46.3 µg/mL |
| CCc1ccccc1OCC(=O)NCC1COc2ccccc2O1 (stereo not given) | 14.9 µg/mL (≈ 45.5 µM) |
| Cc1ccc(S(=O)(=O)NCCC(=O)NC2CCCCC2)cc1 | > 48.7 µg/mL |
| COc1cccc(C(=O)C2CN(C)CC2c2ccc(Cl)cc2)c1 (stereo not given) | > 49.5 µg/mL |
| Cc1cccc(OCC(=O)NCCNC(=O)c2ccco2)c1 | 45 µg/mL (≈ 149 µM) |
| COc1ccccc1NC(=O)c1ccc([N+](=O)[O-])o1 | 36.8 µg/mL (≈ 140 µM) |
| O=C(c1ccc2ccccc2n1)N1CCN(S(=O)(=O)c2ccccc2)CC1 | > 57.2 µg/mL |
| S=C(NC1CCCCC1)N1CCCCC1 | 26.3 µg/mL (≈ 116 µM) |
| COc1cccc(CNc2nccs2)c1O | > 35.4 µg/mL |
| CCC1(c2ccc(Cl)cc2)NC(=O)N(CC(=O)N2CCN(C(=O)c3ccco3)CC2)C1=O (stereo not given) | > 68.8 µg/mL |
| COc1cccc(C(=O)NCC(=O)OCC(=O)NC2CCCCC2)c1 | > 52.3 µg/mL |
| COc1ccc(CSCC(=O)Nc2ccccc2)cc1[N+](=O)[O-] | > 49.9 µg/mL |
| Cc1cnc(NCCc2ccccc2)s1 | 23 µg/mL (≈ 105 µM) |
| COc1cccc(CN2C(=O)c3ccccc3S2(=O)=O)c1 | 30 µg/mL (≈ 98.9 µM) |
| CC(=O)Nc1ccc(S(=O)(=O)NCc2ccncc2)cc1 | > 45.8 µg/mL |
| CSc1nc2ccccc2c(=O)n1C1CCOC(C)(C)C1 (stereo not given) | 28.4 µg/mL (≈ 93.3 µM) |

| Structure (SMILES) | solubility kinetic |
| --- | --- |
| O=C(Nc1ccc(F)cc1)c1csc(Cc2ccccc2)n1 | 1.3 µg/mL (≈ 4.16 µM) |
| COc1ccc(CCN=C(N)Nc2nc(C)cc(C)n2)cc1 | 36.5 µg/mL (≈ 122 µM) |
| O=C(O)c1ccc2c(c1)C(=O)N(c1ccc([N+](=O)[O-])cn1)C2=O | > 47 µg/mL |
| O=C(COc1ccc2ccc(=O)oc2c1)Nc1cccnc1 | 14.2 µg/mL (≈ 47.9 µM) |
| CC(OC(=O)C1CC1C)C(=O)Nc1ccc(Cl)cn1 (stereo not given) | 40.9 µg/mL (≈ 145 µM) |
| COC(=O)[C@H](Cc1ccccc1)NC(=O)NCCc1ccccc1F | > 51.7 µg/mL |
| O=[N+]([O-])c1ccc2c(c1)C(c1ccccc1)=NCCN2 | 16.8 µg/mL (≈ 62.9 µM) |
| O/N=C\c1ccccc1Oc1ccc(F)cc1 | 32.3 µg/mL (≈ 140 µM) |
| Clc1ccc2scc(CN3CCCC3)c2c1 | 35.3 µg/mL (≈ 140 µM) |
| O=C(N/C=C/n1cnc2cc(C(F)(F)F)ccc21)c1ccccc1F | 4.9 µg/mL (≈ 14 µM) |
| CC(OC(=O)CCc1nc2ccccc2c(=O)[nH]1)C(=O)Nc1cccc(C(F)(F)F)c1 (stereo not given) | > 65 µg/mL |
| O=C1CSC(c2cccc([N+](=O)[O-])c2)N1c1ccccc1F (stereo not given) | 37.7 µg/mL (≈ 118 µM) |
| O=C(CCC(=O)c1ccccc1)Nc1ccccc1 | 22.5 µg/mL (≈ 88.8 µM) |
| O=c1cc(CN2CCN(S(=O)(=O)c3cccc(Cl)c3)CC2)c2ccc(O)cc2o1 | 13.3 µg/mL (≈ 30.6 µM) |
| CSCCC(NS(=O)(=O)c1ccccc1F)C(=O)NCC(c1ccco1)N(C)C (stereo not given) | > 66.5 µg/mL |
| Cc1nc2ccccc2n1Cc1ccccc1Br | 26 µg/mL (≈ 86.3 µM) |
| Cl.OC1(c2ccccc2)CCN(Cc2ccccc2)CC1 | 37.6 µg/mL |
| O=C(O)CCC(=O)Nc1cccc(-c2nc3ccccc3o2)c1 | > 46.5 µg/mL |
| CC(C)c1ccc(C(O)Cc2nc3ccccc3n2C)cc1 (stereo not given) | 1.8 µg/mL (≈ 6.11 µM) |
| O=[N+]([O-])c1ccc(N2CCN(C(=S)Nc3ccc(F)cc3)CC2)cc1 | 0.4 µg/mL (≈ 1.11 µM) |
| Nc1ccc(C(=O)[O-])cc1.[K+] | 24.1 µg/mL |
| CN(C)CCn1ccc(O)c(Cc2ccc(Cl)cc2)c1=O | 44.8 µg/mL (≈ 146 µM) |
| COc1ccc(C)cc1S(=O)(=O)NCc1cccs1 | 42.4 µg/mL (≈ 143 µM) |
| O=C(Nc1nccs1)C1CC(=O)N(Cc2ccco2)C1 (stereo not given) | 40.7 µg/mL (≈ 140 µM) |

| Structure (SMILES) | solubility kinetic |
| --- | --- |
| CCC1CCCCN1C(=O)COC(=O)c1cc(=O)[nH]c2ccccc12 (stereo not given) | > 51.4 µg/mL |
| COc1ccc(C(=O)NC(=S)N2CC(C)OC(C)C2)cc1OC (stereo not given) | > 50.8 µg/mL |
| Oc1c(CN2CCCC(C(F)(F)F)C2)cc(Cl)c2ccccc12 (stereo not given) | 4.1 µg/mL (≈ 11.9 µM) |
| Cc1cc(N(C)Cc2ccccc2)nc2cc(O)ccc12 | 30.5 µg/mL (≈ 110 µM) |
| CCN1CCN(C(=O)C23CCC(C)(C(=O)C2Br)C3(C)C)CC1 (stereo not given) | > 55.7 µg/mL |
| OCCN1CCN(c2cc(C(F)(F)F)nc3c(F)cccc23)CC1 | 48.5 µg/mL (≈ 141 µM) |
| O=c1ccc(-c2nc3ccccc3n2Cc2ccc(Cl)cc2)c[nH]1 | 38.7 µg/mL (≈ 115 µM) |
| CC(=O)Nc1ccc(S(=O)(=O)N2CCN(c3ccc([N+](=O)[O-])cc3)CC2)cc1 | 0.4 µg/mL (≈ 0.989 µM) |
| CN1C(=O)/C(=C\c2ccccc2OCc2ccccc2)SC1=S | < 0.7 µg/mL |
| C=CCN(c1ccccc1OC)S(=O)(=O)c1cccc(C(=O)NC2=NCCS2)c1 | 7.4 µg/mL (≈ 17.1 µM) |
| COc1ccc(S(=O)(=O)N(C)C)cc1NC(=O)COC(=O)C1CC1 | > 53.5 µg/mL |
| COc1ccccc1CCC(=O)OCC(=O)NC1CCCCC1 | 43.7 µg/mL (≈ 137 µM) |
| Cc1ccc2sc(N(CCN(C)C)C(=O)/C=C/c3cccs3)nc2c1C.Cl | < 0.3 µg/mL |
| O=C(Cn1c(=S)[nH]c2ncccc2c1=O)NCCc1ccccc1 | 2.1 µg/mL (≈ 6.17 µM) |
| Cc1cc(NC(=O)COC(=O)c2cccc(O)c2)no1 | > 41.4 µg/mL |
| Cc1cc(NC(=O)C(Cl)c2ccccc2)no1 (stereo not given) | > 37.6 µg/mL |
| CCc1cccc(OCC2Cn3c(nc4c3c(=O)n(C)c(=O)n4C)O2)c1 (stereo not given) | 28.2 µg/mL (≈ 79.1 µM) |
| Cc1ccccc1S(=O)(=O)c1cc2ccccc2nc1N | 1.5 µg/mL (≈ 5.03 µM) |
| c1csc(-c2nc(N3CCOCC3)c3ccccc3n2)c1 | 2 µg/mL (≈ 6.73 µM) |
| CCc1ccc(NC(=S)N2CCCC(C(F)(F)F)C2)cc1 (stereo not given) | 6.1 µg/mL (≈ 19.3 µM) |
| COCCN(C(=O)c1ccccc1OC)c1nnc(C)s1 | > 46.1 µg/mL |
| O=C(Nc1ccc2c(c1)OCCO2)C1CC(c2ccc(F)cc2)=NO1 (stereo not given) | 1.2 µg/mL (≈ 3.51 µM) |
| O=C(NCc1cccnc1)C1CC(c2cccc(Br)c2)=NO1 (stereo not given) | 52.5 µg/mL (≈ 146 µM) |
| CC1CCCN(S(=O)(=O)c2ccc([N+](=O)[O-])cc2)C1 (stereo not given) | 2.9 µg/mL (≈ 10.2 µM) |

| Structure (SMILES) | solubility kinetic |
| --- | --- |
| CC(=O)O.O=S(=O)(Cc1ccccc1)N1CCNCC1 | 34.3 µg/mL |
| Nc1ccc(C(=O)OCc2nc3ccccc3s2)cc1 | 27 µg/mL (≈ 95 µM) |
| O=C(NCCNC(=O)c1ccccc1F)c1ccco1.O=C(O)C(=O)O | 51.5 µg/mL |
| O=C(Nc1ccccc1F)Nc1cccnc1Cl | 7.8 µg/mL (≈ 29.4 µM) |
| CC(NC(=O)CN(C)CC(=O)Nc1cccc(F)c1)c1ccccc1 (stereo not given) | > 51.5 µg/mL |
| CN1C(=O)/C(=C2\SC(=S)N(CCCCCC(=O)O)C2=O)c2ccccc21 | 6 µg/mL (≈ 15.4 µM) |
| c1cc2c(cc1NC1CCCCCC1)OCO2 | 5.9 µg/mL (≈ 25.3 µM) |
| COc1cccc(C2N(c3ccccc3)CCN2c2ccccc2)c1OC | 1 µg/mL (≈ 2.77 µM) |
| Nc1c(NCCc2ccccc2)c2ccccc2oc1=O | > 42 µg/mL |
| Cc1cc(NC(=O)Cc2ccccc2[N+](=O)[O-])no1 | 16.6 µg/mL (≈ 63.5 µM) |
| Cc1ccccc1NC(=O)NC(C)(C)CC(C)(C)C | 1.3 µg/mL (≈ 4.95 µM) |
| O=[N+]([O-])c1cncc([N+](=O)[O-])c1Nc1cccc(O)c1 | > 41.4 µg/mL |
| O=C(COC(=O)CNC(=O)c1ccccc1Cl)NC1CCCC1 | > 50.8 µg/mL |
| COc1ccc2[nH]cc(CCn3ccc(=O)c(C)c3C)c2c1 | 42.2 µg/mL (≈ 142 µM) |
| CC1Cc2ccccc2N1C(=O)COC(=O)c1ccc([N+](=O)[O-])o1 (stereo not given) | > 49.5 µg/mL |
| CN1C(=O)c2ccc(C(=O)Nc3ccc4c(c3)OCO4)cc2C1=O | 0.7 µg/mL (≈ 2.16 µM) |
| Cl.c1ccc2c(CC3=NCCN3)cccc2c1 | > 37 µg/mL |
| CCN(C(=O)C1=COCCO1)c1nc2c(C)cccc2s1 | 7.5 µg/mL (≈ 24.6 µM) |
| CCC(=O)c1c[nH]c(C(=O)NCc2ccccc2OC)c1 | 2.8 µg/mL (≈ 9.78 µM) |
| CC(C)OC(=O)Cn1cc(C#N)c2ccccc21 | > 36.3 µg/mL |
| Fc1cccc(CN2CCC(Cc3ccccc3)CC2)c1 | 13.5 µg/mL (≈ 47.6 µM) |
| CSc1nc2c(cc1C#N)CCC2 | 5.1 µg/mL (≈ 26.8 µM) |
| Cc1[nH]c2ccc(C(=O)NC3CCCC3)cc2c1C | > 38.5 µg/mL |
| Cc1cccc2c3c([nH]c12)CCN(C)C3 | > 30 µg/mL |

| Structure (SMILES) | solubility kinetic |
| --- | --- |
| CCCc1cc(=O)[nH]c(SCCc2ccccc2)n1 | 17.4 µg/mL (≈ 63.4 µM) |
| COc1ccccc1Cc1nc(-c2ccncc2)no1 | 33.4 µg/mL (≈ 125 µM) |
| COCCNC(=S)N1CCN(C/C=C/c2ccccc2)CC1 | > 47.9 µg/mL |
| Cc1ccc(NC2=C(Cl)C(=O)OC2OC(=O)c2ccc(C)cc2)cc1 (stereo not given) | 2.6 µg/mL (≈ 7.27 µM) |
| Cc1ccccc1NC(=O)c1ccc(OCc2c(C)noc2C)cc1 | 42.3 µg/mL (≈ 126 µM) |
| Cc1oc(/N=C/c2cccc([N+](=O)[O-])c2)c(C#N)c1C | 7.2 µg/mL (≈ 26.7 µM) |
| COC(=O)[C@@H]1CC(O)CN1C(=O)C12CC3CC(CC(C3)C1)C2 (stereo not given in full) | > 46.1 µg/mL |
| COc1ccc(CNC(=O)C2CC(C)=CCC2C(=O)O)cc1 (stereo not given) | > 45.5 µg/mL |
| CC(=O)Nc1ccc(C(F)(F)F)cc1Cl | 23.1 µg/mL (≈ 97.2 µM) |
| Cc1ccc(C(CC(=O)NCCCN(C)C)c2ccc(OC(C)C)cc2)cc1 (stereo not given) | 52.9 µg/mL (≈ 138 µM) |
| Cc1ccc(C)c(C(=O)COC(=O)Cn2c(C)csc2=O)c1 | > 47.9 µg/mL |
| O=C(COC(=O)CCC(=O)c1ccc(F)cc1)NCc1ccco1 | > 50 µg/mL |
| O=C(CSc1c[nH]c2ccccc12)NC1CCCC1 | > 41.2 µg/mL |
| N#Cc1c(-c2ccncc2)cc(-c2ccc(F)cc2)nc1N | 0.5 µg/mL (≈ 1.72 µM) |
| CC(=O)N(c1ccc(C)cc1)c1nc(C)cc(C)c1C#N | > 41.9 µg/mL |
| COc1ccc(OC)c(/C=N/OC(=O)Nc2ccc(Cl)cc2)c1 | 8.3 µg/mL (≈ 24.8 µM) |
| Cc1c(C(=O)C(=O)NCCCn2ccnc2)c2ccccc2n1C | > 48.7 µg/mL |
| O=C(COC(=O)c1cccnc1Cl)NCc1ccc(F)cc1 | > 48.4 µg/mL |
| CCn1c(O)c(C#N)c(C)cc1=O | > 26.7 µg/mL |
| CN(Cc1cccc(F)c1)C(=O)c1ccc(S(=O)(=O)N2CCCCCC2)cc1 | 25.4 µg/mL (≈ 62.8 µM) |
| Cc1cccc2cc(CNCc3ccccc3)c(Cl)nc12 | 3.8 µg/mL (≈ 12.8 µM) |
| O=C(O)c1ccccc1Nc1cccc(C(F)(F)F)c1 | > 42.2 µg/mL |
| Cc1cc2ncc(-c3ccccc3)nc2cc1C | < 0.3 µg/mL |
| CC(NC(=O)COC(=O)CN1C(=O)c2ccccc2C1=O)c1ccccc1 (stereo not given) | > 55 µg/mL |
